Data published in US7078195B2, “Antibiotics AA-896” (Wyeth Holdings Corporation, priority 2001, dated 2006).
In brackets after ≈: the same amount, converted by molar mass.

Experiments:
Assay in all cases: Broth dilution MIC
Assay type in all cases: cell-based
[1] = test system: E. coli GC 4559; details: 18 hours at 35° C.; for Antimicrobial Activity (MIC): Mueller-Hinton broth
Experimental: (§1) The in vitro antibacterial activity of AA-896-A1, AA-896-A2, AA-896-A3, AA-896-A4, AA-896-A5, AA-896-B1, AA-896-B2, AA-896-B3, AA-896-B4, AA-896-B5, AA-896-B6, AA-896-B7, AA-896-C1, AA-896-C2, AA-896-C3, AA-896-C4, AA-896-D1, AA896-D2 and AA-896-D3 is determined against a spectrum of Gram-positive and Gram-negative bacteria by a standard broth dilution method. Serial dilution of the compounds are made in Mueller-Hinton broth and inoculated with a bacterial suspension. The lowest concentration of compound that inhibited the growth of a bacterial strain after 18 hours of incubation at 35° C. is reported as the minimal inhibitory concentration (MIC) for that strain.

[2] = test system: K. pneumoniae GC 4534; details: 18 hours at 35° C.; for Antimicrobial Activity (MIC): Mueller-Hinton broth
Experimental: as §1

[3] = test system: CNS GC 4537; details: Mueller-Hinton broth, 18 hours at 35° C.
Experimental: as §1

[4] = test system: CNS GC 4538; details: Mueller-Hinton broth, 18 hours at 35° C.
Experimental: as §1

[5] = test system: E. coli GC 2203; details: 18 hours at 35° C.; for Antimicrobial Activity (MIC): Mueller-Hinton broth
Experimental: as §1

[6] = test system: M. morganii GC 4531; details: 18 hours at 35° C.; for Antimicrobial Activity (MIC): Mueller-Hinton broth
Experimental: as §1

[7] = test system: P. aeruginosa GC 2214; details: 18 hours at 35° C.; for Antimicrobial Activity (MIC): Mueller-Hinton broth
Experimental: as §1

[8] = test system: E. cloacae GC 3783; details: 18 hours at 35° C.; for Antimicrobial Activity (MIC): Mueller-Hinton broth
Experimental: as §1

[9] = test system: E. faecalis GC 4555; details: 18 hours at 35° C.; for Antimicrobial Activity (MIC): Mueller-Hinton broth
Experimental: as §1

[10] = test system: E. coli GC 3226; details: 18 hours at 35° C.; for Antimicrobial Activity (MIC): Mueller-Hinton broth
Experimental: as §1

[11] = test system: E. faecalis GC 2242; details: 18 hours at 35° C.; for Antimicrobial Activity (MIC): Mueller-Hinton broth
Experimental: as §1

[12] = test system: E. coli GC 4560; details: 18 hours at 35° C.; for Antimicrobial Activity (MIC): Mueller-Hinton broth
Experimental: as §1

[13] = test system: E. faecalis GC 842; details: 18 hours at 35° C.; for Antimicrobial Activity (MIC): Mueller-Hinton broth
Experimental: as §1

[14] = test system: S. marcescens GC 4077; details: 18 hours at 35° C.; for Antimicrobial Activity (MIC): Mueller-Hinton broth
Experimental: as §1

[15] = test system: S. aureus GC 4536; details: 18 hours at 35° C.; for Antimicrobial Activity (MIC): Mueller-Hinton broth
Experimental: as §1

[16] = test system: S. aureus GC 2216; details: 18 hours at 35° C.; for Antimicrobial Activity (MIC): Mueller-Hinton broth
Experimental: as §1

[17] = test system: S. aureus GC 1131; details: 18 hours at 35° C.; for Antimicrobial Activity (MIC): Mueller-Hinton broth
Experimental: as §1

[18] = test system: P. rettgeri GC 4530; details: 18 hours at 35° C.; for Antimicrobial Activity (MIC): Mueller-Hinton broth
Experimental: as §1

[19] = test system: CNS GC 4547; details: Mueller-Hinton broth, 18 hours at 35° C.
Experimental: as §1

[20] = test system: P. aeruginosa GC 4532; details: 18 hours at 35° C.; for Antimicrobial Activity (MIC): Mueller-Hinton broth
Experimental: as §1

[21] = test system: E. faecalis GC 242; details: Mueller-Hinton broth, 18 hours at 35° C.
Experimental: as §1

[22] = read-out: Antimicrobial Activity (MIC)

Row | Antimicrobial Activity (MIC) [1] | Antimicrobial Activity (MIC) [2] | Antimicrobial Activity (MIC) [3] | Antimicrobial Activity (MIC) [4] | Antimicrobial Activity (MIC) [5] | Antimicrobial Activity (MIC) [6] | Antimicrobial Activity (MIC) [7] | Antimicrobial Activity (MIC) [8] | Antimicrobial Activity (MIC) [9] | Antimicrobial Activity (MIC) [10] | Antimicrobial Activity (MIC) [11] | Antimicrobial Activity (MIC) [12] | Antimicrobial Activity (MIC) [13] | Antimicrobial Activity (MIC) [14] | Antimicrobial Activity (MIC) [15] | Antimicrobial Activity (MIC) [16] | Antimicrobial Activity (MIC) [17] | Antimicrobial Activity (MIC) [18] | Antimicrobial Activity (MIC) [19] | Antimicrobial Activity (MIC) [20] | SMILES | further results
1 | – | – | – | – | – | – | – | – | – | – | – | – | – | – | – | – | – | – | – | – | CC(C)C(NC(=O)NC(C(=O)NC(C(=O)NCCCNC(C(=O)O)C(O)C1OC(n2ccc(=O)[nH]c2=O)C(O)C1O)C(OC(=O)CCCCCCCCCCCCN(O)C(=N)N)C(C)C)C1CCNC(=N)N1)C(=O)O [AA-896-A5, 6-[[3-[3-[[13-(Carbamimidoylhydroxyamino)tridecanoyl]oxy]-2-[2-[[(1-carboxy-2-methyl-propyl)carbamoyl]amino]-2-(hexahydro-2-iminopyrimidin-4-yl)acetamido]-4-methyl-pentanamido]propyl]amino]-1,6-dideoxy-1-(3,4-dihydro-2,4-dioxopyrimidin-1(2H)-yl)-β-D-heptofuranuronic acid] | MIC ([1]; Escherichia coli, GC4559, Mueller-Hinton broth, read-out: Antimicrobial Activity (MIC)): 4 µg/mL (≈ 3.74 µM); MIC ([2]; Klebsiella pneumoniae, GC4534, Mueller-Hinton broth, read-out: Antimicrobial Activity (MIC)): 8 µg/mL (≈ 7.48 µM); MIC [3, 22]: 16 µg/mL (≈ 15 µM); MIC [4, 22]: 4 µg/mL (≈ 3.74 µM); MIC ([5]; Escherichia coli, GC2203, Mueller-Hinton broth, read-out: Antimicrobial Activity (MIC)): 16 µg/mL (≈ 15 µM); MIC ([6]; Morganella morganii, GC4531, Mueller-Hinton broth, read-out: Antimicrobial Activity (MIC)): > 64 µg/mL; MIC ([7]; Pseudomonas aeruginosa, GC2214, Mueller-Hinton broth, read-out: Antimicrobial Activity (MIC)): 32 µg/mL (≈ 29.9 µM); MIC ([8]; Enterobacter cloacae, GC3783, Mueller-Hinton broth, read-out: Antimicrobial Activity (MIC)): 1 µg/mL (≈ 0.934 µM); MIC ([9]; Enterococcus faecalis, GC4555, Mueller-Hinton broth, read-out: Antimicrobial Activity (MIC)): 32 µg/mL (≈ 29.9 µM); MIC ([10]; Escherichia coli, GC3226, Mueller-Hinton broth, read-out: Antimicrobial Activity (MIC)): 16 µg/mL (≈ 15 µM); MIC ([11]; Enterococcus faecalis, GC2242, Mueller-Hinton broth, read-out: Antimicrobial Activity (MIC)): > 64 µg/mL; MIC ([12]; Escherichia coli, GC4560, Mueller-Hinton broth, read-out: Antimicrobial Activity (MIC)): ≤ 0.06 µg/mL; MIC ([13]; Enterococcus faecalis, GC842, Mueller-Hinton broth, read-out: Antimicrobial Activity (MIC)): > 64 µg/mL; MIC ([14]; Serratia marcescens, GC4077, Mueller-Hinton broth, read-out: Antimicrobial Activity (MIC)): > 64 µg/mL; MIC ([15]; Staphylococcus aureus, GC4536, Mueller-Hinton broth, read-out: Antimicrobial Activity (MIC)): 8 µg/mL (≈ 7.48 µM); MIC ([16]; Staphylococcus aureus, GC2216, Mueller-Hinton broth, read-out: Antimicrobial Activity (MIC)): 16 µg/mL (≈ 15 µM); MIC ([17]; Staphylococcus aureus, GC1131, Mueller-Hinton broth, read-out: Antimicrobial Activity (MIC)): 16 µg/mL (≈ 15 µM); MIC ([18]; Providencia rettgeri, GC4530, Mueller-Hinton broth, read-out: Antimicrobial Activity (MIC)): > 64 µg/mL; MIC [19, 22]: 16 µg/mL (≈ 15 µM); MIC ([20]; Pseudomonas aeruginosa, GC4532, Mueller-Hinton broth, read-out: Antimicrobial Activity (MIC)): 32 µg/mL (≈ 29.9 µM)
2 | 32 µg/mL | 32 µg/mL | >64 µg/mL | 64 µg/mL | 64 µg/mL | >64 µg/mL | 64 µg/mL | 8 µg/mL | >64 µg/mL | 64 µg/mL | >64 µg/mL | <=0.06 μg/ml | >64 µg/mL | >64 µg/mL | >64 µg/mL | >64 µg/mL | >64 µg/mL | >64 µg/mL | >64 µg/mL | >64 µg/mL | COC1C(OC(C(NCCCNC(=O)C(NC(=O)C(NC(=O)NC(C(=O)O)C(C)C)C2CCNC(=N)N2)C(OC(=O)CCCCC(C)C)C(C)C)C(=O)O)C2OC(n3ccc(=O)[nH]c3=O)C(O)C2O)OC(CN)C1O [AA-896-B6, 5-O-[5-Amino-5-deoxy-2-O-methyl-β-D-ribofuranosyl]-6-[[3-[2-[2-[[(1-carboxy-2-methyl-propyl)carbamoyl]amino]-2-(hexahydro-2-iminopyrimidin-4-yl)acetamido]-4-methyl-3-[(6-methylheptanoyl)oxy]pentanamido]propyl]amino]-1,6-dideoxy-1-(3,4-dihydro-2,4-dioxopyrimidin-1(2H)-yl)-β-D-heptofuranuronic acid] | –
3 | 64 µg/mL | 64 µg/mL | >64 µg/mL | >64 µg/mL | >64 µg/mL | >64 µg/mL | >64 µg/mL | 16 µg/mL | >64 µg/mL | >64 µg/mL | >64 µg/mL | <=0.06 μg/ml | >64 µg/mL | >64 µg/mL | >64 µg/mL | >64 µg/mL | >64 µg/mL | >64 µg/mL | >64 µg/mL | >64 µg/mL | CC(C)CCCCC(=O)OC(C(C)C)C(NC(=O)C(NC(=O)NC(C(=O)O)C(C)C)C1CCNC(=N)N1)C(=O)NCCCNC(C(=O)O)C(OC1OC(CN)C(O)C1O)C1OC(n2ccc(=O)[nH]c2=O)C(O)C1O [AA-896-B7, 5-O-[5-Amino-5-deoxy-β-D-ribofuranosyl]-6-[[3-[2-[2-[[(1-carboxy-2-methylpropyl)-carbamoyl]amino]-2-(hexahydro-2-iminopyrimidin-4-yl)acetamido]-4-methyl-3-[(6-methylheptanoyl)oxy]pentanamido]propyl]amino]-1,6-dideoxy-1-(3,4-dihydro-2,4-dioxopyrimidin-1(2H)-yl)-β-D-heptofuranuronic acid] | –
4 | 32 µg/mL | >32 µg/mL | >32 µg/mL | >32 µg/mL | 16 µg/mL | >32 µg/mL | 32 µg/mL | 16 µg/mL | >32 µg/mL | 16 µg/mL | – | 0.25 µg/mL | >32 µg/mL | >32 µg/mL | >32 µg/mL | >32 µg/mL | >32 µg/mL | >32 µg/mL | >32 µg/mL | 32 µg/mL | CC(C)CC(NC(=O)C(NC(=O)NC(C(=O)O)C(C)C)C1CCNC(=N)N1)C(=O)NCCCNC(C(=O)O)C(OC1OC(CN)C(O)C1O)C1OC(n2ccc(=O)[nH]c2=O)C(O)C1O [AA-896-D2, 5-O-[5-Amino-5-deoxy-β-D-ribofuranosyl]-6-[[3-[2-[2-[[(1-carboxy-2-methylpropyl)-carbamoyl]amino]-2-(hexahydro-2-iminopyrimidin-4-yl)acetamido]-4-methylpentanamido]-propyl]amino]-1,6-dideoxy-1-(3,4-dihydro-2,4-dioxopyrimidin-1(2H)-yl)-β-D-heptofuran-uronic acid] | Antimicrobial Activity (MIC) [21]: >32 µg/mL
